Where two headings read alike, the source gives them in different places.
Experiments:
[1] = biological target: T1, C. breweri S-linalool synthase (Clarkia breweri, UniProt Q96376); experiment: S-linalool synthase (LIS) enzyme assay: conversion of [1-3H]-GPP to linalool, hexane/pentane overlay, scintillation counting or radio-GC; format: biochemical; conditions: for rate of conversion to linalool relative to the rate for GPP: LPP enantiomers tested as alternate substrates; for Rate (substrate specificity, relative to GPP = 100%): putative substrates tested at 12 μM, averages and SE of four replicate determinations; for whether the divalent metal ion supports the enzymatic reaction (Neither ... nor ... support): at 1 to 10 mM, as the chloride salts; for efficiency of divalent metal ion as cofactor (in words): Mg2+ substituting for Mn2+; for effect of detergent on enzyme activity: 0.1% w/v (SDS at similar levels); for Specific Activity: by purification step, starting material 10 g excised stigmata
T1 construct: active as monomer; not recombinant
T1 sequence (Q96376 1-870): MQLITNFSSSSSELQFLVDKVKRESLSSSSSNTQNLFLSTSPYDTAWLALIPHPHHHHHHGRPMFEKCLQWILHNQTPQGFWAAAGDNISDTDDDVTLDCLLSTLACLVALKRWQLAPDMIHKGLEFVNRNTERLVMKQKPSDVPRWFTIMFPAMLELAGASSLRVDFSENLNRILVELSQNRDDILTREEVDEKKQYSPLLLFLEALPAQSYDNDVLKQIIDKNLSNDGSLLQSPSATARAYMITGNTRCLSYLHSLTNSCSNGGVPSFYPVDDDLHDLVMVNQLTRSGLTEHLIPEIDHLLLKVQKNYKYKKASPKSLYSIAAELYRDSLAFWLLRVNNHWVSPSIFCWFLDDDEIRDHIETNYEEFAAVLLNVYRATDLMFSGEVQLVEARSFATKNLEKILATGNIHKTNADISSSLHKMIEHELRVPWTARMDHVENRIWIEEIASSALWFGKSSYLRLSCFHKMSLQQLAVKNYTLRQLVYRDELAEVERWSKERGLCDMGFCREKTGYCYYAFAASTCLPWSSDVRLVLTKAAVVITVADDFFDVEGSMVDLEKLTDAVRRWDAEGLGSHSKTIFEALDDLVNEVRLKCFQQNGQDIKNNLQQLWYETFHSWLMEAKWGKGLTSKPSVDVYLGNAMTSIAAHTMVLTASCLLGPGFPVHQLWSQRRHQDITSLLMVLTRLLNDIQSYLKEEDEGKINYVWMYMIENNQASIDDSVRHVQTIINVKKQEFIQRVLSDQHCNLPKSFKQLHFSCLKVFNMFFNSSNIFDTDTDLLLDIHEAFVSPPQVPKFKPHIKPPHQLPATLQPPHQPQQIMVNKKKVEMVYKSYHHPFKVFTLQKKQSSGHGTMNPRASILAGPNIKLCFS
Protocol: The crude extract (100 ml) was loaded onto a DEAE-cellulose (0.7 cm diam.×6 cm) column (Whatman, DE52) that was pre-equilibrated with a solution containing 50 mM BisTris, pH 6.9, 10% glycerol and 10 mM DTT (buffer A) at a flow rate of about 1 ml/min. Following elution of the unadsorbed material, the column was washed with 50 ml of buffer A followed by an additional 20 ml of buffer A containing 150 mM KCl. LIS activity was then eluted with 20 ml of buffer A containing 250 mM KCl. Fractions with the highest LIS activity (about 60% yield, 10 ml), were either pooled and used immediately, or frozen at -20° C. for up to 1 month with less than 20% loss of activity. The DEAE-cellulose purified fractions were diluted 2-fold with ice-cold buffer A, and loaded on a 1 cm diam.×10cm hydroxyapatite column (Bio-Gel HT, Bio-Rad, Richmond, Calif.) installed in a Pharmacia FPLC apparatus, and pre-equilibrated with 100 ml of buffer A, at a flow rate of 0.5 ml/min. After the enzyme was loaded, the column was washed with 20 ml buffer A and then eluted using a linear gradient (100 ml) from 0 to 200 mM Na-phosphate in buffer A. The fractions containing LIS activity, eluting at about 100 mM Na-phosphate, were pooled (10 to 16 ml) and loaded on a pre-packed Pharmacia Mono-Q HR 5/5 FPLC column equilibrated with buffer A. After a 20-ml wash with buffer A, a steep linear gradient from 0 to 100 mM KCl in buffer A (10 ml) was applied, followed by a more gradual linear gradient from 100 to 400 mM KCl in buffer A (100 ml, 0.25 ml/min). The enzyme consistently eluted at about 220 mM KCl. After dialysis to assay conditions, the enzyme at this level of purity was used for characterization.
After incubation, the assay mixture was briefly mixed again to extract non-polar products into the organic layer. An 800-μl aliquot of the hexane phase was placed into a scintillation vial containing 10 ml of a cocktail of 0.4% (w/v) Omnifluor (Du Pont, Boston Mass.) dissolved in 30% (v/v) ethanol in toluene and counted in a Packard TriCarb 460 CD scintillation spectrometer (efficiency for ^3 H=36%) to determine the total monoterpene synthase activity. To examine in detail the products formed, radio-GC was performed as described (Croteau et al., 1990). For this purpose, the 2 ml pentane extract containing the enzymatically formed ^3 H-labeled products was removed, dried by passage through MgSO4, and internal standards were added (10 μg each of linalool and geraniol; nerol was UD also included in initial experiments). The mixture was then concentrated to ~10 μl under a gentle stream of nitrogen, and an aliquot (2-3 μl) was injected into a Gow-Mac 550P radio gas chromatograph fitted with a 0.125 in ×12 ft stainless steel column loaded with AT-1000 (Gas Chrom Q, Alltech), attached to a Packard 894 gas proportional counter. The initial column temperature was 170° C. and, following a 5 min hold, was programmed at 5° C./min to 220° C., using He at a flow rate of 50 ml/min. Control incubations included the omission of enzyme extract, the use of boiled enzyme extract, the omission of substrate, and the omission of divalent cations. All of these controls produced negligible radioactivity in the hexane phase of the enzyme assay mixtures.
The enantiomeric composition of linalool samples was determined on a fused silica capillary column (0.25 mm internal diam.×30 m) coated with a 0.25 μm film of β-cyclodextrin (J & W Scientific, Cyclodex B), operated at an initial temperature of 75° C. for 15 min followed by a rise of 5° C./min to 200° C. H2 at a head pressure of 13.5 psi was used as carrier gas (Alonso et al., 1992).

[2] = biological target: T2, LIS (linalool synthase) in crude extracts (Clarkia breweri, UniProt Q96376); experiment: LIS activity assay in crude extracts of open C. breweri flowers; format: biochemical
T2 sequence (Q96376 1-870): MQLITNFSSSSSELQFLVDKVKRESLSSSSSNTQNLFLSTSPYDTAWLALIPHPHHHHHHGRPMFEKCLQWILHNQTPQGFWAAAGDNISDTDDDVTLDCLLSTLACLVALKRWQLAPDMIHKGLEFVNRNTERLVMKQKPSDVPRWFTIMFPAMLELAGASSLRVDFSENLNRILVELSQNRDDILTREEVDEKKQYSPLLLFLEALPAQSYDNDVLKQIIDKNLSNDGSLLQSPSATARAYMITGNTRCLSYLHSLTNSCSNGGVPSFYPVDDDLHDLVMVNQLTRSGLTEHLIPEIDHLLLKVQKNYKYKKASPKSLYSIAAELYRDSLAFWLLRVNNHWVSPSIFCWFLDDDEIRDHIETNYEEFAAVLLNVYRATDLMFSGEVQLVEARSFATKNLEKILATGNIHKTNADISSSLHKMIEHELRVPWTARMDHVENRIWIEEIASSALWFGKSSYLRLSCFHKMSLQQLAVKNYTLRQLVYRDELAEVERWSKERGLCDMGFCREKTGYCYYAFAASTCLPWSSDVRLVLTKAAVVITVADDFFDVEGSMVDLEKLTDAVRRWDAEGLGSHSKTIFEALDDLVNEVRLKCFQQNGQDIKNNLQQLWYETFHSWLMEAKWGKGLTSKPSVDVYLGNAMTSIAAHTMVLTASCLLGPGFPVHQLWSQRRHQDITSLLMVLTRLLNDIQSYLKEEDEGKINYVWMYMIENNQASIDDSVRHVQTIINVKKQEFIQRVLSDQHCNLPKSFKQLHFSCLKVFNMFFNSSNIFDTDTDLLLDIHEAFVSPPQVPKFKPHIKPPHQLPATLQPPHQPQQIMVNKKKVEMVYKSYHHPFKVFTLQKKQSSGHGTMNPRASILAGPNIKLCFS
Protocol: LIS activity was assayed by combining crude extract with ^3 H-GPP (or other substrates) in a buffer containing co-factors. LIS activity was monitored by counting the radioactive linalool extracted from the assay buffer with hexane (GPP is not soluble in hexane) in a scintillation counter. Radio-GC analyses (Croteau et al., 1990) were also undertaken because GPP could be enzymatically hydrolyzed by non-specific phosphatases to produce geraniol, or the tissue might contain other monoterpene synthases, and geraniol or the other monoterpenes that may be produced are also soluble in the organic phase. […] Furthermore, with a special stereo-GC column it was also shown that the product of the reaction is exclusively S-linalool.
A crude protein extract was prepared by macerating flower parts in a microcentrifuge tube in the presence of ice-cold buffer (10 volumes:fresh weight) containing 50 mM BisTris-HCl pH 6.9, 10 mM DTT, 5 mM Na2 S2 O5, 1% (w/v) PVP-40 and 10% (v/v) glycerol. The slurry was centrifuged for 10 min and the supernatant transferred to a new tube. For each time point, extracts of 3 to 5 flowers from 3 different plants were combined. […]
After 1 h, the tube was vortexed again and the amount of the radioactive linalool product, which partitioned into the organic phase, was determined by an LSC of an aliquot. […]

[3] = divalent metal ion required for activity, read-out: Km of divalent metal ion cofactor

Molecule: [3H]C=C[C@@](C)(CCC=C(C)C)OP(=O)(O)OP(=O)(O)O [3R-[1-^3 H]Linalyl pyrophosphate, reference compound]
- rate of conversion to linalool relative to the rate for GPP [1]: essentially not converted to linalool
- Rate (substrate specificity, relative to GPP = 100%) [1]: 0.6 ± 0.6%

Molecule: [3H]C=C[C@](C)(CCC=C(C)C)OP(=O)(O)OP(=O)(O)O [3S-[1-^3 H]Linalyl pyrophosphate, reference compound]
- rate of conversion to linalool relative to the rate for GPP [1]: 15%
- Rate (substrate specificity, relative to GPP = 100%) [1]: 15.1 ± 6.0%

Molecule: [Ca+2] [Ca^2+]
- whether the divalent metal ion supports the enzymatic reaction (Neither ... nor ... support) [1]: Neither

Molecule: [Co+2] [Co^2+]
- whether the divalent metal ion supports the enzymatic reaction (Neither ... nor ... support) [1]: Neither

Molecule: [Cu+2] [Cu^2+]
- whether the divalent metal ion supports the enzymatic reaction (Neither ... nor ... support) [1]: Neither

Molecule: CC(C)=CCC/C(C)=C/COP(=O)(O)OP(=O)(O)O [GPP, Geranyl Pyrophosphate, reference compound]
- cofactor / substrate requirement of LIS activity [2]: the only substrate
- Km ([1]; calculated from a Lineweaver-Burk plot, purified enzyme, read-out: Km value for GPP): 0.9 µM
- Rate (substrate specificity, relative to GPP = 100%) [1]: 100 ± 9.6%
- Rate with GPP corresponding to 100% ([1]; substrate at 12 μM, Table 6 footnote b): 22. 2 pkat/mg protein

Molecule: [Mg+2] [Mg^2+]
- efficiency of divalent metal ion as cofactor (in words) [1]: half the rate
- Km [1, 3]: 330 µM

Molecule: [Mn+2] [Mn^2+]
- efficiency of divalent metal ion as cofactor (in words) [1]: most efficient
- Km [1, 3]: 45 µM

Molecule: [Zn+2] [Zn^2+]
- whether the divalent metal ion supports the enzymatic reaction (Neither ... nor ... support) [1]: Neither

Molecule: CCCCCCCCCCCCOS(=O)(=O)[O-].[Na+] [sodium dodecyl sulfate, reference compound]
- effect of detergent on enzyme activity [1]: complete loss of activity

Molecule: Hydroxyapatite
- Specific Activity [1]: 44.1 pkat mg^-1
- specific activity of preparation loaded on Superdex 75 ([1]; hydroxyapatite-purified enzyme): 44.1 pkat/mg protein

Molecule: Triton-X-100 [reference compound]
- effect of detergent on enzyme activity [1]: no effect on enzyme activity

B1: LIS: S-linalool synthase purified from stigmata of C. breweri (Mono Q purified enzyme used for characterization), SEQ ID NO:2 (protein)
chain: MQLITNFSSSSSELQFLVDKVKRESLSSSSSNTQNLFLSTSPYDTAWLALIPHPHHHHHHGRPMFEKCLQWILHNQTPQGFWAAAGDNISDTDDDVTLDCLLSTLACLVALKRWQLAPDMIHKGLEFVNRNTERLVMKQKPSDVPRWFTIMFPAMLELAGASSLRVDFSENLNRILVELSQNRDDILTREEVDEKKQYSPLLLFLEALPAQSYDNDVLKQIIDKNLSNDGSLLQSPSATARAYMITGNTRCLSYLHSLTNSCSNGGVPSFYPVDDDLHDLVMVNQLTRSGLTEHLIPEIDHLLLKVQKNYKYKKHHQNHCIALLRNYTGFISIFGCFESIITGYHHQFFCWFLDDDEIRDHIETNYEEFAAVLLNVYRATDLMFSGEVQLVEARSFATKNLEKILATGNIHKTNADISSSLHKMIEHELRVPWTARMDHVENRIWIEEIASSALWFGKSSILRLSCFHKMSLQQLAVKNYTLRQLVYRDELAEVERWSKERGLCDMGFCREKTGYCYYAFAASTCLPWSSDVRLVLTKAAVVITVADDFFDVEGSMVDLEKLTDAVRRWDAEGLGSHSKTIFEALDDLVNEVRLKCFQQNGQDIKNNLQQLWYETFHSWLMEAKWGKGLTSKPSVDVYLGNAMTSIAAHTMVLTASCLLGPGFPVHQLWSQRRHQDITSLLMVLTRLLNDIQSYLKEEDEGKINYVWMYMIENNQASIDDSVRHVQTIINVKKQEFIQRVLSDQHCNLPKSFKQLHFSCLKVFNMFFNSSNIFDTDTDLLLDIHEAFVSPPQVPKFKPHIKPPHQLPATLQPPHQPQQIMVNKKKVEMVYKSYHHPFKVFTLQKKQSSGHGTMNPRASILAGPNIKLCFS
- pH optimum ([1]; broad optimum): 7.4
- Specific Activity [1]: 395 pkat mg^-1
- stability to vigorous vortexing with non-polar organic solvents ([1]; hexane and pentane): very stable
- loss of activity in the absence of DTT ([1]; over 2 h at 4° C.): > 95%
- rate at pH 6.4 and 8.4 relative to the optimal ([1]; pH 6.4 and 8.4): ~ 80%
- turnover number ([1]; under saturating conditions): 31.6 s⁻¹

Source: US5849526A, “Use of linalool synthase in genetic engineering of scent production” (The Regents of the University of Michigan, priority 1996, dated 1998)
